Results on one compound are retold here after patent US7053052B2, “Therapies involving mutated heat shock transcription factor” (priority 1997, dated 2006).

In this series the test system is HepG2 cells. In words: Mortality from exposure to cyclophosphamide (LDH release, mortality). The following applies: 20 mM, 24 hour exposure. A general note: LDH leaks from cells whose membrane has failed.

Turning to `O=P1(N(CCCl)CCCl)NCCCO1` (stereo not shown) [cyclophosphamide, reference compound], the “mortality caused by cyclophosphamide” value is reported as 38%.
